Experimental data reported in ChEMBL document CHEMBL5360640, “Liquiritigenin Confers Liver Protection by Enhancing NRF2 Signaling through Both Canonical and Non-canonical Signaling Pathways” (2023).
Active and inactive are the calls of the source. The calls are words filed in the database; no cut-off is given here.

Legend:
[1] = target: T1, Nuclear factor erythroid 2-related factor 2 (Mus musculus) (UniProt Q60795); assay: Ubiquitination activity in Flag-tagged NRF2 in mouse BNL CL.2 cells at 40 uM for 24 hrs followed by MG132 treatment for 4 hrs by immunoprecipitation assay; format: cell-based
T1 sequence (whole entry): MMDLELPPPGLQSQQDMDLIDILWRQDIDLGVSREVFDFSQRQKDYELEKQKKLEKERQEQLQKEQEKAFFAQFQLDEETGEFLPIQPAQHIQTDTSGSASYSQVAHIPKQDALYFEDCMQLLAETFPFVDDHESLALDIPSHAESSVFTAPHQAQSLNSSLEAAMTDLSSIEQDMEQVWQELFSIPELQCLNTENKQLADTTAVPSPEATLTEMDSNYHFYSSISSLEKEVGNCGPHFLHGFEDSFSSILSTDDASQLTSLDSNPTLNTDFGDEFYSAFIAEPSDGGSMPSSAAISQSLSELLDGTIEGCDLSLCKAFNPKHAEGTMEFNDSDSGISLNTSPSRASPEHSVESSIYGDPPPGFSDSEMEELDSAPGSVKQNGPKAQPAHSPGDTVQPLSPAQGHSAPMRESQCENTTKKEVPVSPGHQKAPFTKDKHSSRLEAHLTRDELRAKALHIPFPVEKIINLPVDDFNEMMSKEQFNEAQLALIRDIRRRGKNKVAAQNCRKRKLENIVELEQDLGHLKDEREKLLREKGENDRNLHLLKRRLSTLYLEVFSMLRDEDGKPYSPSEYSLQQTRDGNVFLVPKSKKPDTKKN

[2] = system: BNL CL.2; assay: Upregulation of DZANK1 mRNA expression in mouse […] cells; format: functional, cell-based
[3] = system: BNL CL.2; assay: Upregulation of DYNLT1 mRNA expression in mouse […] cells; format: functional, cell-based
[4] = system: BNL CL.2; assay: Upregulation of HIPK4 mRNA expression in mouse […] cells; format: functional, cell-based
[5] = system: Mus musculus; assay: Hepatoprotective activity against cisplatin induced liver injury […] mouse model assessed as reduction of […] in liver tissue at 40 mg/kg, ip administered every 24 hrs for 72 hrs; format: functional, organism-based
[6] = system: Mus musculus; assay: Hepatoprotective activity against cisplatin induced liver injury […] mouse model assessed as rescue of disorder arrangement of hepatic cord at 40 mg/kg, ip administered every 24 hrs for 72 hrs; format: functional, organism-based
[7] = target: Kelch-like ECH-associated protein 1/Nuclear factor erythroid 2-related factor 2 (Mus musculus) (UniProt Q60795+Q9Z2X8); assay: Inhibition of in flag-tagged NRF2/wildtype His-tagged KEAP1 in mouse BNL CL.2 cells and protein-protein interaction at 40 uM for 24 hrs followed by treatment with MG132 for 4 hrs by immunoblot assay; format: cell-based; settings: filed as activator
[8] = system: Mus musculus; assay: Hepatoprotective activity against cisplatin induced liver injury […] mouse model assessed as reduction of ALT in serum at 40 mg/kg, ip administered every 24 hrs for 72 hrs; format: functional, organism-based
[9] = system: BNL CL.2; assay: Effect of ROS generation in mouse BNL CL.2 cells incubated at 40 uM for 24 hrs (reference value: 9.42%); format: functional
[10] = system: BNL CL.2; assay: Effect of ROS generation in cisplatin induced hepatotoxicity in mouse BNL CL.2 NRF2 cells assessed as increase in ROS level treated at 40 uM for 24 hrs; format: functional, cell-based
[11] = system: BNL CL.2; assay: Effect on KEAP1 protein level in mouse BNL CL.2 cells assessed as no change in level at 40 uM measured upto 24 hrs; format: functional, cell-based; settings: filed as activator
[12] = system: BNL CL.2; assay: Inhibition of autophagy in mouse BNL CL.2 cells assessed as suppression of autophagosome formation by measuring reduction in red puncta incubated upto 80 uM for 24 hrs by immuno fluoroscence analysis; format: functional, cell-based
[13] = system: BNL CL.2; assay: Inhibition of autophagy in mouse BNL CL.2 cells assessed as suppression of autolysosome formation by measuring reduction in yellow puncta incubated upto 80 uM for 24 hrs by immuno fluoroscence analysis; format: functional, cell-based
[14] = system: BNL CL.2; assay: Effect of ROS generation in mouse BNL CL.2 cells incubated at 10 uM for 24 hrs (reference value: 9.42%); format: functional
[15] = system: BNL CL.2; assay: Effect on KEAP1 level in mouse BNL CL.2 cells assessed as no change treated at 40 uM for 24 hrs by immunoblot analysis; format: functional, cell-based
[16] = system: BNL CL.2; assay: Upregulation of OAS1 mRNA expression in mouse […] cells; format: functional, cell-based
[17] = system: BNL CL.2; assay: Upregulation of CCDC122 mRNA expression in mouse […] cells; format: functional, cell-based
[18] = target: T1, Nuclear factor erythroid 2-related factor 2 (Mus musculus); assay: Activation of NRF2 in mouse BNL CL.2 cells treated for 8 to 24 hrs by immunoblot analysis; format: cell-based; settings: filed as activator, dose 10-40 µM, time 8-24 hrs
[19] = target: T1, Nuclear factor erythroid 2-related factor 2 (Mus musculus); assay: Activation of flag-tagged NRF2 in mouse BNL CL.2 cells in presence of His-tagged KEAP1 C151S mutant at 40 uM for 24 hrs followed by treatment with MG132 for 4 hrs by immunoblot assay; format: cell-based; settings: filed as activator
[20] = system: BNL CL.2; assay: Upregulation of […] mRNA expression in mouse […] CL.2 cells; format: functional, cell-based
[21] = system: BNL CL.2; assay: Effect of ROS generation in cisplatin induced hepatotoxicity in mouse BNL CL.2 NRF2 knockout cells assessed as increase in ROS level treated at 40 uM for 24 hrs (reference value: 93.8%); format: functional
[22] = system: BNL CL.2; assay: Effect of ROS generation in cisplatin induced hepatotoxicity in mouse BNL CL.2 NRF2 knockout cells assessed as increase in ROS level treated at 40 uM for 24 hrs; format: functional, cell-based
[23] = system: BNL CL.2; assay: Effect on p62 level in mouse BNL CL.2 NRF2 knockout cells assessed as increase in protein level treated at 40 uM for 24 hrs by immunoblot analysis; format: functional, cell-based

Kelch-like ECH-associated protein 1/Nuclear factor erythroid 2-related factor 2 (Mus musculus), sequence (Q9Z2X8 whole entry, looked up, one chain of several): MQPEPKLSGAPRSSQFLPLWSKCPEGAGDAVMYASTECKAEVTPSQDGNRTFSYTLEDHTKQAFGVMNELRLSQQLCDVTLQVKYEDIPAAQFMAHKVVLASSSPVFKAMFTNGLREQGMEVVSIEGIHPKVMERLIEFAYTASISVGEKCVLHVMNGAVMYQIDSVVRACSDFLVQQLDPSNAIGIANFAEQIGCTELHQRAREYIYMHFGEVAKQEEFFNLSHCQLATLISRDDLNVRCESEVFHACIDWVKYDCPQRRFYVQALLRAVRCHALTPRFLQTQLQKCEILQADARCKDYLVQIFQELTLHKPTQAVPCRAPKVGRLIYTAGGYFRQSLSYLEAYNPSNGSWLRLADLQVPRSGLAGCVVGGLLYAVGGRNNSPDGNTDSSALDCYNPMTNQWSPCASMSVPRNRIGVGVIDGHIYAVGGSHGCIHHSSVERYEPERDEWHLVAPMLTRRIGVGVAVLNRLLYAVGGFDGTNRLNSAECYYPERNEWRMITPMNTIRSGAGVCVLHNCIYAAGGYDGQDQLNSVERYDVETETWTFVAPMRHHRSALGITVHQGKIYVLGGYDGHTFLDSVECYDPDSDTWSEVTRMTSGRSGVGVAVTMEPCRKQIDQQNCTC

Q: With `O=C1C[C@@H](c2ccc(O)cc2)Oc2cc(O)ccc21` [LIQUIRTIGENIN] as the compound, how does the Activity [1] read?
A: inactive

Q: What about the Activity [2] of the same compound?
A: Active

Q: What about the Activity [3] of the same compound?
A: Active

Q: And the Activity [4]?
A: Active

Q: And the Activity [5]?
A: Active

Q: What about the Activity [6] of the same compound?
A: Active

Q: And the inhibition [7]?
A: Active

Q: And the Activity [8]?
A: Active

Q: And the Activity [9]?
A: 4.52%

Q: And the Activity [10]?
A: Active

Q: What about the Activity [11] of the same compound?
A: Active

Q: What about the inhibition [12] of the same compound?
A: Active

Q: What about the inhibition [13] of the same compound?
A: Active

Q: And the Activity [14]?
A: 9.8%

Q: And the Activity [15]?
A: Active

Q: What about the Activity [16] of the same compound?
A: Active

Q: What about the Activity [17] of the same compound?
A: Active

Q: What about the Activity [18] of the same compound?
A: Dose-Dependent Effect

Q: And the Activity [19]?
A: Active

Q: And the Activity [20]?
A: Active

Q: And the Activity [21]?
A: 91.9%

Q: And the Activity [22]?
A: Active

Q: And the Activity [23]?
A: Active
